≈ marks a conversion by molar mass, not a printed value.
Tests used:
[1] = test system: methicillin-resistant Staphylococcus epidermidis (MRSE) 12228; test: MIC by broth microdilution (CLSI); assay type: cell-based
[2] = test system: methicillin-susceptible Staphylococcus epidermidis (MSSE) 35984; test: MIC by broth microdilution (CLSI); assay type: cell-based
Enterococcus faecium = test: MIC by broth microdilution (CLSI); assay type: cell-based; conditions: compared to that against Staphylococcus
Gram-negative bacteria = test: MIC by broth microdilution (CLSI); assay type: cell-based; conditions: compared to that against Staphylococcus
clinically isolated MRSA = test: MIC against clinical isolates; assay type: cell-based, Staphylococcus aureus; conditions: controls moxalactam and cefepime
Method: (§1) The clinical strains of MRSA and MSSA isolated in Beijing, Sichuan, and Shanghai in the last 3 years totaled more than 300 strains. Clinical isolates were stored at −80°C in 20% glycerol-rich brain heart infusion (BHI) and passaged twice on Trypticase soy agar prior to the experiment. Before the experiment, 16s RNA identification was performed, and then PCR was used to distinguish MRSA and MSSA by identifying the mecA gene. Furthermore, the MIC of cefoxitin against clinical isolates was tested again. The drug sensitivity results were judged according to the criteria established by the American Society for Clinical Laboratory Standardization. MRSA was determined by a cefoxitin MIC of ≥8 μg/mL ([36]). Finally, 100 strains each of MRSA and MSSA were randomly selected from the identified strains for subsequent experiments. All chemical reagents and antibiotics were purchased from Sigma (St. Louis, MO). S. aureus was grown at 30°C in BHI broth (Oxoid) with constant shaking or on BHI agar plates unless otherwise noted. […]
(§2) The antibacterial spectrum and susceptibility of WYBQ-4 against MRSA USA300, MSSA 29213, and clinically isolated S. aureus were determined using a broth microdilution method following the guidelines outlined by the Clinical and Laboratory Standards Institute (CLSI) ([37], [38]). […] The absorbance was measured at 600 nm, and experiments were repeated in three biological replicates.

clinically isolated MSSA = test: MIC against clinical isolates; assay type: cell-based, Staphylococcus aureus; conditions: controls moxalactam and cefepime
Method: as §1, §2

MSSA ATCC 29213 = test: Postantibiotic effect (viable plate count); assay type: cell-based, Staphylococcus aureus; conditions: 1 h exposure
Method: The postantibiotic effect (PAE) of WYBQ-4 against MSSA 29213 was determined in MHB agar using the viable plate count method ([39]). […] After incubation at 37°C for 1 h, WYBQ-4 was removed by centrifugation and washing with phosphate-buffered saline (PBS). Subsequently, fresh MHB medium was added to resuspend the bacteria, and the mixture was incubated at 37°C with shaking. The number of colonies was counted by taking 10 μL of bacteria at 1-h intervals and applying them to BHI agar plates after appropriate dilution. PAE duration was calculated as follows: time (h) for bacteria to return to log-phase growth after drug treatment – time (h) for the control group to return to log-phase growth ([40]).

MRSA USA300 [3] = test: Mouse lung infection model, survival; assay type: in vivo, mice; conditions: mouse pneumonia, USA300 2 × 10^8 CFU, 12-h intervals, within 72 h
Method: The animal experiments were performed using 6-week-old male C57BL/6J mice, and the mouse model of lung infection caused by MRSA USA300 was established as previously described ([43], [44]). For the survival rate, mice (10 per group) were infected with MRSA USA300 (2 × 10^8 CFU per mouse). After 2 h of infection, mice were given WYBQ-4 via subcutaneous injection and reinjected at 12-h intervals, whereas mice were treated with ceftaroline fosamil at the same doses and served as positive controls. Mice injected with only MRSA USA300 were used as a negative control. Survival of mice was recorded within 72 h, and survival rates were calculated.

MRSA USA300 [4] = test: Mouse lung infection model, bacterial load and histopathology; assay type: in vivo, mice; conditions: mouse pneumonia
Method: The mice were challenged with 1 × 10^8 CFU of MRSA USA300 to assess bacterial load and pathological changes. The dose and manner of administration in mice were consistent with the survival experiments. In addition, the mice treated with ceftaroline fosamil at 75 and 37.5 mg/kg were used as control groups. At 48 h postinfection, mice were euthanized, and the left lungs were aseptically removed, weighed, and homogenized. Then, the lung tissues were homogenized and serially diluted for CFU counts. The right lungs were fixed with 10% formalin, embedded in paraffin, thin-sectioned, subjected to conventional hematoxylin and eosin (H&E) staining, and then observed using an optical microscope.

MRSA USA300 [5] = test: Mouse systemic infection model; assay type: in vivo, mice; conditions: USA300 5 × 10^7 CFU, 150 mg/kg, tail intravenous injection at 0 and 3 h, 7-day
Method: (§3) The S. aureus-induced systemic infection model of mice (6-week-old female C57BL/6J mice) was established as previously described ([46]). […] The mice infected in the same way were treated with physiological saline as an infection control group. The mock group was not infected with S. aureus, and the 7-day mortality of the mice in each group was calculated.

clinical isolate SA1B2B = test: Mouse systemic infection model; assay type: in vivo, mice; conditions: different doses
Method: as §3

clinical isolate SA28 = test: Mouse systemic infection model; assay type: in vivo, mice; conditions: different doses
Method: as §3

C#CCO[C@@]1(NC(=O)CSc2cccc(C)c2)C(=O)N2C(C(=O)O)=C(CSc3nnnn3C)CSC21 (stereo partly drawn) [WYBQ-4]
MIC [1]: 4 µg/mL (≈ 7.32 µM) | MIC [2]: 0.5 µg/mL (≈ 0.915 µM) | antibacterial activity (Enterococcus faecium): weak | antibacterial activity (Gram-negative bacteria): weak | bacteriostatic activity (MIC) versus control drugs (clinically isolated MRSA): better bacteriostatic activity than the control drugs | bacteriostatic activity (MIC) versus control drugs (clinically isolated MSSA): better bacteriostatic activity than the control drugs | PAE (MSSA ATCC 29213; 2× MIC): 1.5 h | PAE (MSSA ATCC 29213; 8× MIC): 3.5 h | survival rate (MRSA USA300 [3]; 37.5 mg/kg subcutaneous): 36.67% | survival rate (MRSA USA300 [3]; 75 mg/kg subcutaneous): 70.00% | bacterial counts in the lung (MRSA USA300 [4]; USA300 1 × 10^8 CFU, 75 mg/kg, 48 h postinfection): 5.44 ± 0.15 log10 CFU/g | inflammatory signs of lung tissue (H&E histopathology) (MRSA USA300 [4]; USA300, after treatment): significantly reduced | survival rate (MRSA USA300 [5]): 100% | protection in systemic infection (clinical isolate SA1B2B): had a protective effect | protection in systemic infection (clinical isolate SA28): had a protective effect
